# From patent US10202371B2, “Oxazolidin-2-one-pyrimidine derivatives and the use thereof as phosphatidylinositol-3-kinase inhibitors” (Novartis AG, priority 2012, dated 2019)
# Read-outs that look alike come from different tables or passages of the source.
# Tests used:
# Type in all cases: cell-based
# [1] = test system: SCL-1 cells; assay: BrdU cell proliferation assay SCL-1; details: Homo sapiens, BrdU incorporation
# Description: (§1) The SCL-1 and SCC12B2 are human cutaneous squamous cell carcinoma (SCC) cell lines derived from naturally occurring, poorly differentiated SCCs. The SCL-1 cell line was originally established in the lab of N. Fusenig at the Cancer Research Center in Heidelberg, and its growth characteristics in vitro in comparison to normal keratinocytes were described previously (Neely et al 1991). The SCC12B2 cell line was established as described previously (Rheinwald & Beckett 1981) from the facial skin of a transplant patient who received immunosuppressive therapy for 7 years. The human SCC cell line Detroit562 was obtained from American Tissue Culture Collection (ATCC). Detroit562 is referred to as Head & Neck squamous cell carcinomas (HNSCC) and was derived from a pharyngeal SCC tumor. […]
# (§2) Cells of SCC or keratinocyte lines (Detroit562, SCC12B2, SCL1, HaCaT) were used for the proliferation assays when they had reached about 80% to 90% confluency. Cells were then harvested after trypsin-mediated dislodgement from culture flasks, washed in culture medium containing 10% FCS, counted in a hemocytometer and diluted complete culture medium with 5% FCS to obtain a cell density of 5×10^4 cells/ml. […] The cell proliferation was determined on the basis of incorporation of bromodesoxy-uridin (BrdU) into cellular DNA using the chemiluminescent BrdU Cell Proliferation ELISA (Roche article #11 669 915 001). […]
# [2] = test system: SCC12B2 cells; assay: BrdU cell proliferation assay SCC12B2; details: Homo sapiens, BrdU incorporation
# Description: as §1, §2
# [3] = test system: Detroit562 cells; assay: BrdU cell proliferation assay Detroit562; details: Homo sapiens, Detroit 562, BrdU incorporation
# Description: as §1, §2
# [4] = test system: HaCaT keratinocyte cell line; assay: BrdU cell proliferation assay HaCaT keratinocytes; details: Homo sapiens, BrdU incorporation
# Procedure: Cells of SCC or keratinocyte lines (Detroit562, SCC12B2, SCL1, HaCaT) were used for the proliferation assays when they had reached about 80% to 90% confluency. Cells were then harvested after trypsin-mediated dislodgement from culture flasks, washed in culture medium containing 10% FCS, counted in a hemocytometer and diluted complete culture medium with 5% FCS to obtain a cell density of 5×10^4 cells/ml. 100 μl of this cell suspension (e.g. 5000 cells) were transferred into each well of a 96-well white walled tissue culture plate (Corning-Costar article #3917). Cells were then allowed to settle by placing them in the CO2 incubator for 45 to 60 minutes. Subsequently, a volume of 100 μl of culture medium containing twice the desired final concentration of the test compound was added to each well of quadruplicate wells. […] The cell proliferation was determined on the basis of incorporation of bromodesoxy-uridin (BrdU) into cellular DNA using the chemiluminescent BrdU Cell Proliferation ELISA (Roche article #11 669 915 001). […] Incorporation of BrdU into the DNA was detected by BrdU-specific antibodies and quantified on the basis of an antibody-coupled luciferase mediated signal generation. The luminescence emission was measured in a Victor light 1420 Luminescence counter, (Perkin Elmer) and expressed as relative luminescence units (e.g. data points given as RLU/s) per second. […]
compound,measurement,setting,value
"C[C@H]1[C@H](c2nccs2)OC(=O)N1c1cc(-c2cnc(N)nc2C(F)(F)F)nc(N2CCOCC2)n1 [Example 1, (4S,5R)-3-(2′-Amino-2-morpholin-4-yl-4′-trifluoromethyl-[4,5′]bipyrimidinyl-6-yl)-4-methyl-5-thiazol-2-yl-oxazolidin-2-one]",IC50,"[1]; measurement #1, read-out: anti-proliferative IC50 SCL-1 measurement #1",351 nM
same,IC50,"[1]; measurement #2, read-out: anti-proliferative IC50 SCL-1 measurement #2",268 nM
same,IC50,"[2]; measurement #1, read-out: anti-proliferative IC50 SCC12B2 measurement #1",1290 nM
same,IC50,"[2]; measurement #2, read-out: anti-proliferative IC50 SCC12B2 measurement #2",703 nM
same,IC50,"[3]; measurement #1, read-out: anti-proliferative IC50 Detroit562 measurement #1",598 nM
same,IC50,"[3]; measurement #2, read-out: anti-proliferative IC50 Detroit562 measurement #2",440 nM
same,IC50,"[4]; measurement #1, read-out: anti-proliferative IC50 HaCaT measurement #1",282 nM
same,IC50,"[4]; measurement #2, read-out: anti-proliferative IC50 HaCaT measurement #2",298 nM
